Laboratory results from patent publication US20080058332A1, “2,4,6-Trisubstituted Pyrimidines as Phosphotidylinositol (Pi) 3-Kinase Inhibitors and Their Use in the Treatment of Cancer” (priority 2004, published 2008).

What was measured:
[1] = biological target: T1, p110α Type Ia human PI3K (Homo sapiens, UniProt P42336); assay: In vitro enzyme assay (AlphaScreen), inhibition of phosphorylation of PI(4,5)P2 by recombinant Type I PI3K; format: biochemical; conditions: DiC8-PI(4,5)P2 40 μM, ATP 4 μM, read-out: IC50 versus p110α Type Ia human PI3K, Test (a)
T1 construct: full length DNA of each of the p110α, p110β and p110δ Type Ia human PI3K p110 isoforms; 6-His; made in house
T1 sequence (P42336 whole entry, canonical isoform): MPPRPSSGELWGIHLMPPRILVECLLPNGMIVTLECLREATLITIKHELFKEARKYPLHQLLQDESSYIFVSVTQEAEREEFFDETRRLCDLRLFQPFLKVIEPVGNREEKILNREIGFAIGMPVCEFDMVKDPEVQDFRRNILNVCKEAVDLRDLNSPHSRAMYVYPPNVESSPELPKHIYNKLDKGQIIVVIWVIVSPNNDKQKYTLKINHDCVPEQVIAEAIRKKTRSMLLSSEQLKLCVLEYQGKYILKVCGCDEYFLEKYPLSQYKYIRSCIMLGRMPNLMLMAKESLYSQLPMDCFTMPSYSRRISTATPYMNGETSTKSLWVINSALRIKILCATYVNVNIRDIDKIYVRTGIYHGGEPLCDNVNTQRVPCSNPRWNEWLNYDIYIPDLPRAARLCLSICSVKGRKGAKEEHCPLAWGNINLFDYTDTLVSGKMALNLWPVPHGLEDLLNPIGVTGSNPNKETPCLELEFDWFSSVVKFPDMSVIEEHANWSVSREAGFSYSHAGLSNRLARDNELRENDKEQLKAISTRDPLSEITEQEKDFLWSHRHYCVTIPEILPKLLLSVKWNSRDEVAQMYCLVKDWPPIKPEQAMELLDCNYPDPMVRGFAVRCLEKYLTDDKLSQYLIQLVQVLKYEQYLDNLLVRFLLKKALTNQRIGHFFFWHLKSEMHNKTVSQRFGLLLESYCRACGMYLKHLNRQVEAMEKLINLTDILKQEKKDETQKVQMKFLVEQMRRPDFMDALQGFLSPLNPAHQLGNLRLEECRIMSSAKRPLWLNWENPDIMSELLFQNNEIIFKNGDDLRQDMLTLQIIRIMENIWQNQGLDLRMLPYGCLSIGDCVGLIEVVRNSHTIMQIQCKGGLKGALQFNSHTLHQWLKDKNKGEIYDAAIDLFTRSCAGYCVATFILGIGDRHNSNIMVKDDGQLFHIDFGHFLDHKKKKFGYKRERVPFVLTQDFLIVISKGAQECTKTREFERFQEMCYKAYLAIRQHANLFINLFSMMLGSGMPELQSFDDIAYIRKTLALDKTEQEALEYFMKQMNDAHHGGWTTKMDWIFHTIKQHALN
T1 sequence (P27986 whole entry partner, canonical isoform): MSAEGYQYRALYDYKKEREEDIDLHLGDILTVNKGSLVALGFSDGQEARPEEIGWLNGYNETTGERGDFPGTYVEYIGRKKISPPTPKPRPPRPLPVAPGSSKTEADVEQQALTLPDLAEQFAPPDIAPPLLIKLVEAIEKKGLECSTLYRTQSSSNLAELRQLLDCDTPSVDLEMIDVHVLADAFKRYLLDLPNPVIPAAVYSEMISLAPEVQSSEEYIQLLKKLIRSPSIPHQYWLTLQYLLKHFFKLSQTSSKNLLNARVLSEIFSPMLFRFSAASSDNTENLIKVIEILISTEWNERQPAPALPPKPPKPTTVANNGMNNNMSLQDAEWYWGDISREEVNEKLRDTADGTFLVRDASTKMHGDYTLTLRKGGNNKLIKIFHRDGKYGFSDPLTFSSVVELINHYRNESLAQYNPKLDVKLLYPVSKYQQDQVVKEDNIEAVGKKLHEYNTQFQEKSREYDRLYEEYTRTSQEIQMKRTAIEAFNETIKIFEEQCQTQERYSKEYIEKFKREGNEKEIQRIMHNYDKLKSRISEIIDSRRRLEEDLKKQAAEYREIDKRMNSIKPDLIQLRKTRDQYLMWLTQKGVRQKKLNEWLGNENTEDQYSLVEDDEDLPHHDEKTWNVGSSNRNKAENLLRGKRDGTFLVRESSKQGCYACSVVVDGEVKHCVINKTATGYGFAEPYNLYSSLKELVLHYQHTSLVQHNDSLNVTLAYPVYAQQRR
Excerpt: (a) In Vitro Enzyme Assay
The assay used AlphaScreen technology (Gray et al., Analytical Biochemistry, 2003, 313: 234-245) to determine the ability of test compounds to inhibit phosphorylation by recombinant Type I PI3K enzymes of the lipid PI(4,5)P2.
DNA fragments encoding human PI3K catalytic and regulatory subunits were isolated from cDNA libraries using standard molecular biology and PCR cloning techniques. The selected DNA fragments were used to generate baculovirus expression vectors. In particular, full length DNA of each of the p110α, p110β and p110δ Type Ia human PI3K p110 isoforms (EMBL Accession Nos. HSU79143, S67334, Y10055 for p110α, p110β and p110δ respectively) were sub-cloned into a pDEST10 vector (Invitrogen Limited, Fountain drive, Paisley, UK). The vector is a Gateway-adapted version of Fastbac1 containing a 6-His epitope tag. A truncated form of Type Ib human PI3K p110γ isoform corresponding to amino acid residues 144-1102 (EMBL Accession No. X8336A) and the full length human p85α regulatory subunit (EMBL Accession No. HSP13KIN) were also sub-cloned into pFastBac1 vector containing a 6-His epitope tag. The Type Ia p110 constructs were co-expressed with the p85α regulatory subunit. Following expression in the baculovirus system using standard baculovirus expression techniques, expressed proteins were purified using the His epitope tag using standard purification techniques.
DNA corresponding to amino acids 263 to 380 of human Grp1 PH domain was isolated from a cDNA library using standard molecular biology and PCR cloning techniques. […]
Biotinylated-DiC8-PI(3,4,5)P3 (50 nM; Cell Signals Inc., Catalogue No. 107), recombinant purified GST-Grp1 PH protein (2.5 nM) and AlphaScreen Anti-GST donor and acceptor beads (100 ng; Packard Bioscience Limited, Station Road, Pangbourne, Berkshire, UK, Catalogue No. 6760603M) were added and the assay plates were left for about 5 to 20 hours at ambient temperature in the dark. The resultant signals arising from laser light excitation at 680 nm were read using a Packard AlphaQuest instrument. […]

[2] = tested on: phosphorylation of Serine 473 in Akt; assay: In vitro phospho-Ser473 Akt assay in MDA-MB-468 cells; format: cell-based; conditions: Homo sapiens, 2 hours incubation, read-out: IC50, Test (b), inhibition of phosphorylation of Serine 473 in Akt
Experimental: (b) In Vitro phospho-Ser473 Akt Assay
This assay determines the ability of test compounds to inhibit phosphorylation of Serine 473 in Akt as assessed using Acumen Explorer technology (Acumen Bioscience Limited), a plate reader that can be used to rapidly quantitate features of images generated by laser-scanning.
A MDA-MB-468 human breast adenocarcinoma cell line (LGC Promochem, Teddington, Middlesex, UK, Catalogue No. HTB-132) was routinely maintained at 37° C. with 5% CO2 up to a confluency of 70-90% in Dulbecco's modified Eagle's growth medium (DMEM; Invitrogen Limited, Paisley, UK Catalogue No. 41966-029) containing 10% heat-inactivated foetal calf serum (FCS; Sigma, Poole, Dorset, UK, Catalogue No. F0392) and 1% L-glutamine (Gibco, Catalogue No. 25030-024).
For the assay, the cells were detached from the culture flask using ‘Accutase’ (Innovative Cell Technologies Inc., San Diego, Calif., USA; Catalogue No. AT104) using standard tissue culture methods and resuspended in media to give 1.7×10^5 cells per ml. […]
All subsequent aspiration and wash steps were carried out using a Tecan 96 well plate washer (aspiration speed 10 mm/sec). […] An aliquot of PBS (50 μl) was added to each well and the plates were sealed with black plate sealers and the fluorescence signal was detected and analysed. […]

[3] = tested on: MDA-MB-468 human breast adenocarcinoma cells; assay: In vitro MDA-MB-468 human breast adenocarcinoma proliferation assay; format: cell-based; conditions: 48 hours incubation, BrdU incorporation, read-out: IC50, Test (c), inhibition of MDA-MB-468 cell growth
Excerpt: (c) In Vitro MDA-MB-468 Human Breast Adenocarcinoma Proliferation Assay
This assay determines the ability of test compounds to inhibit cell proliferation as assessed using Cellomics Arrayscan technology. A MDA-MB-468 human breast adenocarcinoma cell line (LGC Promochem, Catalogue No. HTB-132) was routinely maintained as described in Biological Assay (b) hereinbefore.
For the proliferation assay, the cells were detached from the culture flask using Accutase and seeded into the inner 60 wells of a black Packard 96 well plate at a density of 8000 cells per well in 100 μl of complete growth media. The outer wells contained 100 μl of sterile PBS. The cells were incubated overnight at 37° C. with 5% CO2 to allow them to adhere.
On day 2, the cells were treated with test compounds and incubated for 48 hours at 37° C. with 5% CO2. […]
BrdU incorporation was detected by incubation for 1 hour at ambient temperature with mouse anti-BrdU antibody (50 μl; Caltag, Burlingame, Calif., US; Catalogue No. MD5200) that was diluted 1:40 in PBS containing 1% BSA and 0.05% Tween-20. […] Subsequently, PBS (100 μl) was added to each well and the plates were analysed using a Cellomics array scan to assess total cell number and number of BrdU positive cells.
Fluorescence dose response data obtained with each compound were analysed and the degree of inhibition of MDA-MB-468 cell growth was expressed as an IC50 value.

IC50 [1] [nM]	IC50 [2] [nM]	IC50 [3] [nM]	SMILES
~1000	~1800	~5000	NCc1cccc(C(=O)Nc2cccc(-c3nc(-c4cccc(CO)c4)cc(N4CCOCC4)n3)c2)c1 [Example 6(48), 2-[3-(3-aminomethylbenzamido)phenyl]-4-(3-hydroxymethylphenyl)-6-morpholinopyrimidine]
~1000			O=C(Nc1cccc(-c2nc(-c3cccc(O)c3)cc(N3CCOCC3)n2)c1)C1CCNCC1 [Example 4(3), 4-(3-hydroxyphenyl)-6-morpholino-2-(3-piperidin-4-ylcarbonylaminophenyl)pyrimidine]
~700	~5100	~10000	N[C@H]1CCC[C@@H](CC(=O)Nc2cccc(-c3nc(-c4cccc(CO)c4)cc(N4CCOCC4)n3)c2)C1 [Example 6(33), 2-(3-{2-[(1R,3S)-3-aminocyclohex-1-yl]acetamido]phenyl}-4-(3-hydroxymethylphenyl)-6-morpholinopyrimidine]
